Laboratory results taken from patent publication US10689354B2, “Aminoazole derivative” (Teijin Pharma Limited, priority 2015, dated 2020).

Columns and labels:
[1] = molecular target: T1, androgen receptor (AR-LBD) (Rattus norvegicus, UniProt P15207); experiment: Evaluation of androgen receptor affinity (PolarScreen Androgen Receptor Competitor Assay Kit, Red; fluorescence polarization); conditions: 22° C. for 5 hours, relative to binding rate of 1 μM DHT, read-out: AR affinity (pEC50) (converted)
T1 construct: 5 μL of 2×AR-LBD/Fluoromone AL Red Complex contained in the kit; purchased Invitrogen
T1 sequence (P15207 651-882 limits assumed): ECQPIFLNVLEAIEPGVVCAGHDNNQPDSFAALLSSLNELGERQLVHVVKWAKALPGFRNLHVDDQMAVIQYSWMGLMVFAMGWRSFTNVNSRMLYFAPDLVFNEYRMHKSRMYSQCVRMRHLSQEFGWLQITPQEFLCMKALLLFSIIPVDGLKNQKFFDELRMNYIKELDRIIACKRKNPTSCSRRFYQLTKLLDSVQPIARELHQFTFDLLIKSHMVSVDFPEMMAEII
Method in brief: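 FP competition: compound + AR-LBD/Fluoromone AL Red tracer complex, 22° C, 5 h. Reference 1 μM DHT binding rate; pEC50 by 4-parameter fit.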

[2] = molecular target: T2, human androgen receptor (Homo sapiens, UniProt P10275); experiment: Reporter assay of an androgen receptor responsive sequence (luciferase, transiently transfected HEK293 cells); assay type: cell-based; conditions: 24 hours incubation, relative to activity of 100 nM DHT, read-out: AR transcriptive activity (pEC50) (converted)
T2 construct: expressed in transfected cells; host or cells: HEK293
T2 sequence (P10275 1-920): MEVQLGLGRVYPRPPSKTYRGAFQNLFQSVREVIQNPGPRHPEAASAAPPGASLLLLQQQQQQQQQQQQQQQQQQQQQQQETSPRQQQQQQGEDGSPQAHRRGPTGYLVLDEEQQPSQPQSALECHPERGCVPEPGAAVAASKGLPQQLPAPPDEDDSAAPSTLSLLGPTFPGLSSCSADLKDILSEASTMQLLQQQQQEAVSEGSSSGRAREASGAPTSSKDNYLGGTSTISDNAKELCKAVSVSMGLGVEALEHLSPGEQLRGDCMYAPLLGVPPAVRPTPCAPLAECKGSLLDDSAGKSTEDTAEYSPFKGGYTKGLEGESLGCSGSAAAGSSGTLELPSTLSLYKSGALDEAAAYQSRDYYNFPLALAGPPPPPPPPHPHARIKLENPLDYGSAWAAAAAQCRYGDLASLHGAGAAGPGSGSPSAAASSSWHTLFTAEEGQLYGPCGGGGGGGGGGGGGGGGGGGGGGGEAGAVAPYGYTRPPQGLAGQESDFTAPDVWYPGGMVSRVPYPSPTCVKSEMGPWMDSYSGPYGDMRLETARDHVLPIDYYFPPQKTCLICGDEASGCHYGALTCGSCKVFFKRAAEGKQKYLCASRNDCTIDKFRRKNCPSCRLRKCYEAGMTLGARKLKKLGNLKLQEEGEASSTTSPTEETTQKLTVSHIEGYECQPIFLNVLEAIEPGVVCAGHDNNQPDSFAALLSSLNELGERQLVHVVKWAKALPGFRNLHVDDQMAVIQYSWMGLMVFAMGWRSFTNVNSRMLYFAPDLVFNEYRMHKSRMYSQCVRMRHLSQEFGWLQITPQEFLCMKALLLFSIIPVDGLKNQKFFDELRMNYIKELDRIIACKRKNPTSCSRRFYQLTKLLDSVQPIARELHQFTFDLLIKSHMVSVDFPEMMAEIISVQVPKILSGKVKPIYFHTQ
Method in brief: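 Agonism scored as pEC50, fitted by 4-parameter curve against the response to 100 nM DHT, from dual-luciferase readout after 24 h compound treatment. Cells were HEK293 co-transfected (3 h) with human AR expression vector, androgen-responsive firefly reporter and Renilla control, in charcoal-stripped serum.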

SMILES | EC50 [1] | EC50 [2]
Cc1sc(N(Cc2ccc(-c3ccc(F)cn3)nc2)c2ccc(C#N)cc2)nc1C(=O)NS(C)(=O)=O [Compound 596, 2-[4-cyano-N-[[6-(5-fluoro-2-pyridyl)-3-pyridyl]methyl]anilino]-5-methyl-N-methylsulfonyl-thiazole-4-carboxamide] | 316 nM | 3980 nM
Cc1sc(N(CCc2ccc(OC(F)(F)F)cc2)Cc2ccccc2)nc1C(=O)NS(C)(=O)=O [Compound 684, 2-[benzyl-[2-[4-(trifluoromethoxy)phenyl]ethyl]amino]-5-methyl-N-methylsulfonyl-thiazole-4-carboxamide] | 39.8 nM | 251 nM
Cc1sc(N(CCn2cc(C#N)cn2)Cc2ccccc2)nc1C(=O)NS(C)(=O)=O [Compound 326, 2-[benzyl-[2-(4-cyanopyrazol-1-yl)ethyl]amino]-5-methyl-N-methylsulfonyl-thiazole-4-carboxamide] | 631 nM | 1000 nM
Cc1sc(N(Cc2ccc(OCC3CCOCC3)cc2)c2ccc(C#N)cc2)nc1C(=O)NS(C)(=O)=O [Compound 576, 2-[4-cyano-N-[[4-(tetrahydropyran-4-ylmethoxy)phenyl]methyl]anilino]-5-methyl-N-methylsulfonyl-thiazole-4-carboxamide] | 63.1 nM | 1260 nM
Cc1sc(N(Cc2ncccc2O)c2ccc(C#N)cc2)nc1C(=O)NS(C)(=O)=O [Compound 492, 2-[4-cyano-N-[(3-hydroxyl-pyridyl)methyl]anilino]-5-methyl-N-methylsulfonyl-thiazole-4-carboxamide] | 794 nM | 1260 nM
CSc1ccccc1CN(c1ccc(C#N)cc1)c1nc(C(=O)NS(C)(=O)=O)c(C)s1 [Compound 452, 2-[4-cyano-N-[(2-methylsulfanylphenyl)methyl]anilino]-5-methyl-N-methylsulfonyl-thiazole-4-carboxamide] | 50.1 nM | 200 nM
Cc1sc(N(CCc2ccc(Cl)cc2)Cc2ccc(C#N)cc2)nc1C(=O)NS(C)(=O)=O [Compound 503, 2-[2-(4-chlorophenyl)ethyl-[(4-cyanophenyl)methyl]amino]-5-methyl-N-methylsulfonyl-thiazole-4-carboxamide] | 31.6 nM | 1260 nM
Cc1sc(N(CC[C@@H]2CCCC[C@H]2O)c2ccc(C#N)cc2)nc1C(=O)NS(C)(=O)=O (racemic) [Compound 410, 2-[4-cyano-N-[2-[trans-2-hydroxycyclohexyl]ethyl]anilino]-5-methyl-N-methylsulfonyl-thiazole-4-carboxamide] | 158 nM | 316 nM
COc1cccc(CN(c2ccc(C#N)cc2)c2nc(C(=O)NS(C)(=O)=O)c(Br)s2)c1 [Example 265, 5-bromo-2-[4-cyano-N-[(3-methoxyphenyl)methyl]anilino]-N-methylsulfonyl-thiazole-4-carboxamide] | 50.1 nM | 158 nM
Cc1oc(N(Cc2cccc(OC(F)(F)F)c2)c2ccc(C#N)cc2)nc1C(=O)NS(C)(=O)=O [Compound 613, 2-[4-cyano-N-[[3-(trifluoromethoxy)phenyl]methyl]anilino]-5-methyl-N-methylsulfonyl-oxazole-4-carboxamide] | 25.1 nM | > 10000 nM
Cc1sc(N(Cc2cnc(C(F)(F)F)c(Cl)c2)c2ccc(C#N)cc2)nc1C(=O)NS(C)(=O)=O [Compound 530, 2-[N-[[5-chloro-6-(trifluoromethyl)-3-pyridyl]methyl]-4-cyano-anilino]-5-methyl-N-methylsulfonyl-thiazole-4-carboxamide] | 50.1 nM | 501 nM
Cc1sc(N(Cc2ccccc2)c2ccc3ccccc3c2)nc1C(=O)NS(C)(=O)=O [Example 232, 2-[benzyl(2-naphthyl)amino]-5-methyl-N-methylsulfonyl-thiazole-4-carboxamide] | 200 nM | > 10000 nM
Cc1sc(N(CCc2cccc(C#N)c2)Cc2ccccc2)nc1C(=O)NS(C)(=O)=O [Compound 672, 2-[benzyl-[2-(3-cyanophenyl)ethyl]amino]-5-methyl-N-methylsulfonyl-thiazole-4-carboxamide] | 251 nM | 1260 nM
Cc1sc(N(CCc2ccccc2)Cc2ccccc2)nc1C(=O)NS(C)(=O)=O [Example 294, 2-[benzyl(2-phenylethyl)amino]-5-methyl-N-methylsulfonyl-thiazole-4-carboxamide] | 100 nM | 1000 nM
Cc1sc(N(CCC2CC3CCC2C3)c2ccc(C#N)cc2)nc1C(=O)NS(C)(=O)=O (centres unmarked) [Compound 482, 2-[4-cyano-N-(2-norbornan-2-ylethyl)anilino]-5-methyl-N-methylsulfonyl-thiazole-4-carboxamide] | 50.1 nM | 158 nM
Cc1nc(CN(c2ccc(C#N)cc2)c2nc(C(=O)NS(C)(=O)=O)c(Br)s2)cs1 [Example 281, 5-bromo-2-[4-cyano-N-[(2-methylthiazol-4-yl)methyl]anilino]-N-methylsulfonyl-thiazole-4-carboxamide] | 398 nM | 631 nM
Cc1sc(N(Cc2cccc(N(C)C)c2)c2ccc(C#N)cc2)nc1C(=O)NS(C)(=O)=O [Example 215, 2-[4-cyano-N-[[3-(dimethylamino)phenyl]methyl]anilino]-5-methyl-N-methylsulfonyl-thiazole-4-carboxamide] | 50.1 nM | 200 nM
Cc1sc(N(CCc2cccc(C(F)(F)F)c2)Cc2ccccc2)nc1C(=O)NS(C)(=O)=O [Compound 330, 2-[benzyl-[2-[3-(trifluoromethyl)phenyl]ethyl]amino]-5-methyl-N-methylsulfonyl-thiazole-4-carboxamide] | 251 nM | > 10000 nM
Cc1sc(N(CCC2CCCCC2)Cc2ccc(Cl)cc2)nc1C(=O)NS(=O)(=O)C(F)(F)F [Compound 723, 2-[(4-chlorophenyl)methyl-(2-cyclohexylethyl)amino]-5-methyl-N-(trifluoromethylsulfonyl)thiazole-4-carboxamide] | 501 nM | > 10000 nM
COC[C@H](C)Oc1ccc(CN(c2ccc(C#N)cc2)c2nc(C(=O)NS(C)(=O)=O)c(C)s2)cc1 [Compound 584, 2-[4-cyano-N-[[4-[(1S)-2-methoxy-1-methyl-ethoxy]phenyl]methyl]anilino]-5-methyl-N-methylsulfonyl-thiazole-4-carboxamide] | 79.4 nM | 3160 nM
Cc1oc(N(CCc2ccc(Cl)cc2)Cc2ccc(Cl)cn2)nc1C(=O)NS(C)(=O)=O [Compound 549, 2-[2-(4-chlorophenyl)ethyl-[(5-chloro-2-pyridyl)methyl]amino]-5-methyl-N-methylsulfonyl-oxazole-4-carboxamide] | 63.1 nM | 1260 nM
Cc1sc(N(Cc2ccc(C(F)(F)F)cc2F)c2ccc(C#N)cc2)nc1C(=O)NS(C)(=O)=O [Compound 498, 2-[4-cyano-N-[[2-fluoro-4-(trifluoromethyl)phenyl]methyl]anilino]-5-methyl-N-methylsulfonyl-thiazole-4-carboxamide] | 31.6 nM | 100 nM
CS(=O)(=O)NC(=O)c1nc(N(Cc2ccc(C(F)(F)F)cn2)c2ccc(C#N)cc2)sc1Br [Compound 643, 5-bromo-2-[4-cyano-N-[[5-(trifluoromethyl)-2-pyridyl]methyl]anilino]-N-methylsulfonyl-thiazole-4-carboxamide] | 79.4 nM | 63.1 nM
Cc1sc(N(Cc2cccs2)c2ccc(C#N)cc2)nc1C(=O)NS(C)(=O)=O [Compound 77, 2-[4-cyano-N-(2-thienylmethyl)anilino]-5-methyl-N-methylsulfonyl-thiazole-4-carboxamide] | 50.1 nM | 631 nM
Cc1sc(N(CCc2ccc(F)cc2)c2ccc(C#N)cc2)nc1C(=O)NS(C)(=O)=O [Compound 81, 2-[4-cyano-N-[2-(4-fluorophenyl)ethyl]anilino]-5-methyl-N-methylsulfonyl-thiazole-4-carboxamide] | 158 nM | 1580 nM
